How the values were obtained:
[1] = target: T1, steroid sulfatase (Rattus norvegicus, UniProt P15589); test: Steroid sulfatase inhibitory activity (in vivo), liver and uterus of ovariectomized rats after oral dosing; details: 0.5 mg/kg p.o. once a day for seven days, ovariectomized female SD rats
T1 construct: The livers and uteri were separately minced with scissors and suspended in cooled PBS containing 250 mM sucrose; from tissue; host or cells: liver and uterus of ovariectomized female SD rats (2,000 x g supernatant of homogenate)
T1 sequence (P15589 20-577): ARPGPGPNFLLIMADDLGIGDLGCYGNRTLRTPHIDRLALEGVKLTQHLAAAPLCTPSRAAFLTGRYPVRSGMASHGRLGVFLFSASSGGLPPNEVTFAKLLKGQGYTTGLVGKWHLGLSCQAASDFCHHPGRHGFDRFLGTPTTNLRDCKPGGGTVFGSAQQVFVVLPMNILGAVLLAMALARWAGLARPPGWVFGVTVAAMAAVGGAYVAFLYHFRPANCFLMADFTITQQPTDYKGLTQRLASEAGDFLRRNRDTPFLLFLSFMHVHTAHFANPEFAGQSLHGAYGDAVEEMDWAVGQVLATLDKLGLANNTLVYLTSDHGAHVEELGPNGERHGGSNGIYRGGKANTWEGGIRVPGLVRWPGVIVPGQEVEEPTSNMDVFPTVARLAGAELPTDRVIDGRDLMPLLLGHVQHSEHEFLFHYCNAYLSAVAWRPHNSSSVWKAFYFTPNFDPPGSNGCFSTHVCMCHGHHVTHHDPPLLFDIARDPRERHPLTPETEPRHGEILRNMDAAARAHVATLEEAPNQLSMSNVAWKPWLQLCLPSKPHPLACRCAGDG
Procedure: (2) Measurement of Steroid Sulfatase Inhibitory Activity (in vivo):
To six/group of female SD rats which had undergone ovariectomy, the test compounds as each suspended in 0.5% polyoxyethylene (20) sorbitan monooleate (Tween 80) were orally administered once a day for seven days. On the next day of the last administration, the rats were sacrificed under ether anesthesia. The bodies were anatomized and their livers and uteri were extracted, which were washed with cooled PBS and stored below −70° C. The livers and uteri were separately minced with scissors and suspended in cooled PBS containing 250 mM sucrose. Each of the suspensions was homogenized with a homogenizer under cooling with ice, from which neclei and cell debris were eliminated by centrifugation at 2,000×g for 20 minutes (4° C.). Protein concentration of each of the supernatant was measured by Bradford's method (Anal. Biochem., 72, 248-254 (1976)).
To 2-200 μg of the supernatant protein mass and 50 μL of 60 μM estrone-3-sulfate containing about 100 nCi of [6,7-^3H]estrone-3-sulfate (purchased from Perkin Elmer Life Sciences, Boston, Mass., U.S.A.; specific activity, 40-60 Ci/mmol), PBS was added to make the total amount 150 μL, followed by incubation at 37° C. for 30 minutes. After the incubation, the amount of hydrolyzed [6,7-^3H]estrone-3-sulfate was calculated by a method similar to the in vitro measurement in (1) above. Also steroid sulfatase activity per mg of the protein was calculated, and from the amount of the hydrolyzed [6,7-^3H]estrone-3-sulfate and the calculated steroid sulfatase activity per mg of the protein, the tested compound's steroid sulfatase inhibitory rate was determined.

[2] = system: Salmonella typhimurium TA 100, TA 1535, TA 98 and TA 1537 strains and Escherichia coli WP 2 uvrA strains; test: Reverse mutation test using bacteria (Ames test), with and without metabolic activation; assay type: cell-based; details: 10-5,000 μg/well; with and without Rat Liver S9mix
Procedure: (6) Reverse Mutation Test Using Bacteria (Ames Test) for Examining Presence of Gentic Toxicity:
Reverse mutation-inducing activity on bacteria of the test compounds was examined by reverse mutation test using bacteria (Mutat. Res., 113, 173-215). The test was conducted by plate incorporation method using Salmonella typhimurium TA 100, TA 1535, TA 98 and TA 1537 strains and Escherichia coli WP 2 uvrA strains as to both cases of not conducting metabolic activation and conducting metabolic activation. The dosages were set at six levels as 10, 50, 100, 500, 1000 and 5,000 μg/well.
Into a sterilized test tube, 0.1 mL of a test compound or a solvent, 0.5 mL of sodium-phosphate buffer (pH=7.4), 0.1 mL of a bacterial suspension and 2 mL of soft agar solution were added and mixed. Where metabolic activation was conducted, […] sodium-phosphate buffer (pH=7.4) was replaced with 0.5 mL of Rat Liver S9mix. The liquid mixture was superposed on the minimum glucose agar medium and after the superposed soft agar solution solidified, the system was cultured at 37° C. for 48 hours. At the end of the culture the number of colonies in which reverse mutation had been induced was visually counted with a colony counter. […]

NS(=O)(=O)Oc1ccc(N2CCN(CCCC3CCCCC3)CC2)cc1F [Example 24, 4-[4-(3-cyclohexylpropyl)piperazin-1-yl]-2-fluorophenyl-O-sulfamate]
Inhibitiory rate (0.5 mg/kg, p.o., %) Liver ([1]; liver): 98.30% | Inhibitiory rate (0.5 mg/kg, p.o., %) Uterus ([1]; uterus): 97.87% | Ames test (reverse mutation inducing activity) [2]: negative
